{"source": "paper PMC11173382", "about": "“In Vitro Investigations into the Potential Drug Interactions of Pseudoginsenoside DQ Mediated by Cytochrome P450 and Human Drug Transporters” (Molecules, 2024)", "key": {"hOCT2": {"target": "T1, hOCT2 (Homo sapiens, UniProt O15244)", "T1 construct": "host or cells: S2-OCT2", "T1 sequence (O15244 1-555)": "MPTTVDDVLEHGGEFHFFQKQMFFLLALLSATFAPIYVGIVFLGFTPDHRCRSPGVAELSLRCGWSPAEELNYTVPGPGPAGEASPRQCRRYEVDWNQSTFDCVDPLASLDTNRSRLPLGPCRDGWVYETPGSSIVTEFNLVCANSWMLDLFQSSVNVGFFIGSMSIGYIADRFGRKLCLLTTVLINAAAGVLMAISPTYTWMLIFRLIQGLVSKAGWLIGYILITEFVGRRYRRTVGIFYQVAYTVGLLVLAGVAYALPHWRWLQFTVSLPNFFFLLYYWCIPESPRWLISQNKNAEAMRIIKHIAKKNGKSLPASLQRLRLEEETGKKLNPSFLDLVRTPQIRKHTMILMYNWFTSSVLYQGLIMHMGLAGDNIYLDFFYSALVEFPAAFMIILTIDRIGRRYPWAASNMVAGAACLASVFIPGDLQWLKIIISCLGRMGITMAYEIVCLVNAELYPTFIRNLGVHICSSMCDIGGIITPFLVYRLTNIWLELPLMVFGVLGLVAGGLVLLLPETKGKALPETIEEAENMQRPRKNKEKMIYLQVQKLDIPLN", "experiment": "Substrates uptake assay, S2-OCT2 cells (14C-TEA)", "assay_type": "in vitro ADME", "conditions": "for Transport activity of OCT2 (main text: percentage inhibition): negative control = 100%", "excerpt": "Drug transporters mediate the cellular uptake and efflux of their substrates. Therefore, cell lines overexpressing a drug transporter can be utilized to investigate inhibitors of the transporter by assessing changes in substrate uptake. For each drug transporter, we selected a well-characterized inhibitor as the positive control. Radiolabeled substrates were used to indicate the decrease in transport efficiency when the drug transporters were inhibited by PDQ or the control inhibitors.\nThe concentrations of the control drugs and the substrates were stated in the assay details. Working solutions of the control inhibitors, the radiolabeled substrates, and each dose of PDQ were prepared at 200 times (200×) more concentrated solutions with DMSO for further dilution.\nTransporter-overexpressed cell lines. Human organic anion transporter-overexpressed cell lines MDCKII-OAT1 and S2-OAT3, human organic anion transport polypeptide-overexpressed cell lines HEK293A-OATP1B1 and HEK293A-OATP1B3, human organic cation transporter 2-overexpressed cell line S2-OCT2, and human multi-drug resistance protein MDR1 (or P-gp)-overexpressed cell line MDCKII-MDR1 were gifts from Japan Fuji Biomedical Co., Ltd. (Fuji, Shizuoka Prefecture, Japan). Breast cancer resistance protein-overexpressed vesicles (sf9-BCRP vesicle) were purchased from GenoMembrane Co., Ltd. (Yokohama, Kanagawa, Japan).\nSubstrates uptake assay. In this assay, we studied the inhibition of PDQ against transporters OAT1, OAT3, OCT2, OATP1B1 and OATP1B3 with MDCKII-OAT1, S2-OAT3, S2-OCT2, HEK293A-OATP1B1and HEK293A-OATP1B3 cells, respectively. The radiolabeled substrates for OAT1, OAT3, OATP1B1, OATP1B3 and OCT2 were […], respectively (Table 5). Probenecid ([…]) was the positive control inhibitor of OAT1 and OAT3, while rifampicin ([…]) served as the control drug of OATP1B1 and OATP1B3. For OCT2, we used […] cimetidine to compare with the inhibitory effect of PDQ. Two times (2×) more concentrated working solutions of the drugs and the substrate were prepared with Dulbecco’s phosphate-buffered saline (DPBS, Gibco, Grand Island, NY, USA.). Then, an equal volume of 2× drug solution and 2× radiolabeled substrate solution were mixed as the working mix. All reagents were pre-warmed to 37 °C.\nThe cells were digested with 0.05% trypsin/EDTA. The density of the single-cell suspension was adjusted to 2.0 × 10^5 cells/mL for S2 cells and to 1.5 × 10^5 cells/mL for MDCK II and HEK293A cells. The cell suspension was then added to the reservoirs of the 24-well plate for culture until full confluency. The medium in the wells was removed, and the wells were washed with DPBS. Then, the plate was incubated for 10 min with pre-warmed DPBS in the wells. After removing DPBS, […] of working mix was added to each well to initiate the substrate uptake process. The reaction time was 5 min for S2-OCT2 cells, while the other four types of cells were incubated with the reaction mix for 2 min. Cold DPBS was used to terminate the substrate transportation. To each well, […] NaOH ([…]) was added to lyse the cells. Then, […] cell lysate was transferred to the counting vials, and 3 mL scintillation cocktail (Aquasol-2, PerkinElmer, Waltham, MA, USA) was added. […] Each sample was replicated three times (N = 3).\nIn = [100 × (U − U0)/(Uc − U0)]%(3)\nThe results were expressed as mean ± standard deviation (SD) and analyzed with GraphPad Prism 8.0 software (CA, USA). The IC50 of PDQ was curve-fitted with the FORECAST function. Statistical significance was calculated using a two-tailed test, and a p value < 0.05 was considered as significant."}, "hOAT3": {"target": "T2, hOAT3 (Homo sapiens, UniProt Q8TCC7)", "T2 sequence (Q8TCC7 1-542)": "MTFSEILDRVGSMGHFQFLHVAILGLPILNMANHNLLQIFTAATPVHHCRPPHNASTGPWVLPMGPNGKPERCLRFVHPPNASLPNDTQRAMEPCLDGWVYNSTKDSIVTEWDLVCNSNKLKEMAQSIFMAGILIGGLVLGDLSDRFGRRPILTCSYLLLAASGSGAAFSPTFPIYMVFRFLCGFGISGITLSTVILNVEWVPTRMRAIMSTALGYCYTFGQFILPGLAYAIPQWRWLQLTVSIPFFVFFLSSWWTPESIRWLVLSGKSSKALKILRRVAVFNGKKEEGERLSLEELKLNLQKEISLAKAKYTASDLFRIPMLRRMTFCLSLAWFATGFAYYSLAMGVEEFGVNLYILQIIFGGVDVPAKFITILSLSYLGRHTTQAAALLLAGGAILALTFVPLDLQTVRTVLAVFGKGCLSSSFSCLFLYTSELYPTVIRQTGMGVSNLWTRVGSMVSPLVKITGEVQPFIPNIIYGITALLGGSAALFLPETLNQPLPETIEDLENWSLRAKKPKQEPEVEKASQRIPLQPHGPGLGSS", "experiment": "Substrates uptake assay, S2-OAT3 cells (3H-ES)", "assay_type": "in vitro ADME", "conditions": "3H-ES 0.05 µM, 2 min"}}, "note": "pIC50: −log10 of the molar value.", "data": [{"molecule": "CC(C)(O)[C@@H]1CC[C@@](C)([C@H]2CC[C@]3(C)[C@@H]2[C@H](O)C[C@@H]2[C@@]4(C)CC[C@H](O)C(C)(C)[C@@H]4CC[C@]23C)O1", "note": "[PDQ, (20S,24S)-dammar-20,24-epoxy-3β, 12β, 25-triol]", "values": [{"measurement": "DPM (14C-TEA uptake by OCT2)", "setting": "hOCT2; inhibitor 0.1 μM", "result": "994.3±112.3", "unit": "DPM"}, {"measurement": "Transport activity of OCT2 (main text: percentage inhibition)", "setting": "hOCT2; inhibitor 0.1 μM", "result": "101.6±11.5", "unit": "%"}, {"measurement": "DPM (14C-TEA uptake by OCT2)", "setting": "hOCT2; inhibitor 0.3 μM", "result": "741.3±35.0", "unit": "DPM"}, {"measurement": "Transport activity of OCT2 (main text: percentage inhibition)", "setting": "hOCT2; inhibitor 0.3 μM", "result": "75.8±3.6", "unit": "%"}, {"measurement": "DPM (14C-TEA uptake by OCT2)", "setting": "hOCT2; inhibitor 1 μM", "result": "712.3±115.3", "unit": "DPM"}, {"measurement": "Transport activity of OCT2 (main text: percentage inhibition)", "setting": "hOCT2; inhibitor 1 μM", "result": "72.8±11.8", "unit": "%"}, {"measurement": "DPM (14C-TEA uptake by OCT2)", "setting": "hOCT2; inhibitor 3 μM", "result": "661.7±93.5", "unit": "DPM"}, {"measurement": "Transport activity of OCT2 (main text: percentage inhibition)", "setting": "hOCT2; inhibitor 3 μM", "result": "67.6±9.6", "unit": "%"}, {"measurement": "DPM (14C-TEA uptake by OCT2)", "setting": "hOCT2; inhibitor 10 μM", "result": "612.0±28.7", "unit": "DPM"}, {"measurement": "Transport activity of OCT2 (main text: percentage inhibition)", "setting": "hOCT2; inhibitor 10 μM", "result": "62.6±2.9", "unit": "%"}, {"measurement": "DPM (14C-TEA uptake by OCT2)", "setting": "hOCT2; inhibitor 30 μM", "result": "578.0±29.5", "unit": "DPM"}, {"measurement": "pIC50", "setting": "hOAT3", "result": "< 4.52"}]}]}
